Each block holds one molecule with its values, some of them ahead of it. Calls of active or inactive are those of the source.
Columns and labels:
[1] = target: Lysine-specific demethylase 4C (Homo sapiens, UniProt Q9H3R0); assay: GASC-1 (JMJD2C) histone demethylase inhibitors, dose response, biochemical, DELFIA europium, cherry-picked samples (AID 488835); type: functional
[2] = AlphaScreen signal interference compounds, dose response, artefact control for ARNT-TACC3 interaction inhibitor project, biochemical, luminescence, cherry-pick (AID 651705); type: functional;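 note: AlphaScreen bead proximity signal that flags compounds interfering with the detection technology; potency reflects signal decrease which marks the compound as an assay artifact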
[3] = target: Lysine-specific demethylase 4A (Homo sapiens, UniProt O75164); assay: JMJD2A histone demethylase inhibitors, dose response, selectivity assay for GASC-1 inhibitor project, biochemical, DELFIA europium, cherry-picked samples (AID 488840)
[4] = cytotoxicity in HMLE control line with eGFP shRNA, dose response, counter-screen for HMLE_sh_ECad selective toxicity project, cell-based, HMLE_sh_eGFP, luminescence (AID 463074); type: functional, Homo sapiens;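 note: HMLE human mammary epithelial cells expressing control shRNA against eGFP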
[5] = Luminescence Cell-Based Dose Retest to Confirm Inhibitors of Cancer Stem Cells. [Related pubchem assays (depositor defined):AID2717, AID2721]; type: functional; details: Homo sapiens
[6] = target: T1, Alkaline phosphatase, tissue-nonspecific isozyme (Homo sapiens, UniProt P05186); assay: inhibition of tissue-nonspecific alkaline phosphatase – biochemical, dose response (AID 488882); type: functional
T1 sequence (P05186 whole entry): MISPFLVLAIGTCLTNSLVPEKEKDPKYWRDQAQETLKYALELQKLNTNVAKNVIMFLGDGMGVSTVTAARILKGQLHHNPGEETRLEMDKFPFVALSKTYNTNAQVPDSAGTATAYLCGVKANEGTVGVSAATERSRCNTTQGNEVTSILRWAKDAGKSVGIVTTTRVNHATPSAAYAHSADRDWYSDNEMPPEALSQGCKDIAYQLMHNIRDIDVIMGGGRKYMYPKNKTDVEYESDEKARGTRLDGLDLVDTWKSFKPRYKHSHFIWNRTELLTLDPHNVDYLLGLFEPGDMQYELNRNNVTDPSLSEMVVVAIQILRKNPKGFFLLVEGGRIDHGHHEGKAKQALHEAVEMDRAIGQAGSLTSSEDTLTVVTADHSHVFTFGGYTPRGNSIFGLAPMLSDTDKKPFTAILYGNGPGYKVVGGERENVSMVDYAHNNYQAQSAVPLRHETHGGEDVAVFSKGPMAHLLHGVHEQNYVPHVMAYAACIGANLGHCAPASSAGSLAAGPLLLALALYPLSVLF

[7] = target: Intestinal-type alkaline phosphatase (Mus musculus, UniProt P24822); assay: PubChem AID 488875; type: functional
[8] = target: T2, Intestinal-type alkaline phosphatase (Homo sapiens, UniProt P09923); assay: human IAP inhibitors, dose response, biochemical, luminescent, uHTS hits, set 2 (AID 488793); type: functional
[9] = target: T2, Intestinal-type alkaline phosphatase; assay: Dose Response confirmation of uHTS hits from a small molecule inhibitors of human intestinal alkaline phosphatase via a luminescent assay. [Related pubchem assays (depositor defined):AID2544, AID2574]; type: functional
[10] = target: T3, Ubiquitin-conjugating enzyme E2 N (Homo sapiens, UniProt P61088); type: functional
T3 sequence (P61088 whole entry): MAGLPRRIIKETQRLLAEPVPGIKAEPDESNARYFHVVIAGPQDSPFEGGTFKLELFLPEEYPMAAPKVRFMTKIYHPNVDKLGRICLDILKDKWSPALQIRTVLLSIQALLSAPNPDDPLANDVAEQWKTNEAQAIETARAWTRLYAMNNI

[11] = target: T3, Ubiquitin-conjugating enzyme E2 N; type: functional; remark: listed apart in the source
Bcl-2-related protein A1 = target: T4, Bcl-2-related protein A1 (Mus musculus, UniProt Q07440); type: functional;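 note: confirmatory dose–response counterscreen on Bfl-1, used to check hits from a UBC13 polyubiquitin inhibitor campaign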
T4 sequence (Q07440 whole entry): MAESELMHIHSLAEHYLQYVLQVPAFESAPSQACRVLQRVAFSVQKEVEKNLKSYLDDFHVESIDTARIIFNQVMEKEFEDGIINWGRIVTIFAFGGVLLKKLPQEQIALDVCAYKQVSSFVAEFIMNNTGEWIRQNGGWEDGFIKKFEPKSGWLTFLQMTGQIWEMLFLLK

Exodeoxyribonuclease V = Exodeoxyribonuclease V (Escherichia coli (strain K12), UniProt P04993+P07648+P08394); assay: E. coli RecBCD inhibitors, dose response, counter-screen for AddAB inhibitor project, absorbance, V66 E. coli, mutant T4 phage (AID 492957); type: functional, cell-based, Escherichia coli str. K-12 substr. MG1655
INS1 = assay: beta cell apoptosis inhibitors, cytokine rescue, dose response, luminescence, retest (AID 449756); type: functional, cell-based; details: Rattus norvegicus;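 note: cell death triggered by IL-1 beta plus TNF-alpha plus IFN-gamma mixture; protective hits raise ATP signal compared with cytokine alone wells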
[12] = Counterscreen for AddAB inhibitors: absorbance-based bacterial cell-based high throughput dose response assay for inhibitors of bacterial viability. [Related pubchem assays (depositor defined):AID435030, AID449728, AID449731, AID488942, AID488955, AID488956]; type: functional
Cytochrome P450 2D6 [13] = target: T5, Cytochrome P450 2D6 (Homo sapiens, UniProt P10635);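 note: CYP2D6 member of a cytochrome P450 panel assay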
Cytochrome P450 2D6 [14] = target: T5, Cytochrome P450 2D6; remark: listed apart in the source

T2 sequence (P09923 whole entry): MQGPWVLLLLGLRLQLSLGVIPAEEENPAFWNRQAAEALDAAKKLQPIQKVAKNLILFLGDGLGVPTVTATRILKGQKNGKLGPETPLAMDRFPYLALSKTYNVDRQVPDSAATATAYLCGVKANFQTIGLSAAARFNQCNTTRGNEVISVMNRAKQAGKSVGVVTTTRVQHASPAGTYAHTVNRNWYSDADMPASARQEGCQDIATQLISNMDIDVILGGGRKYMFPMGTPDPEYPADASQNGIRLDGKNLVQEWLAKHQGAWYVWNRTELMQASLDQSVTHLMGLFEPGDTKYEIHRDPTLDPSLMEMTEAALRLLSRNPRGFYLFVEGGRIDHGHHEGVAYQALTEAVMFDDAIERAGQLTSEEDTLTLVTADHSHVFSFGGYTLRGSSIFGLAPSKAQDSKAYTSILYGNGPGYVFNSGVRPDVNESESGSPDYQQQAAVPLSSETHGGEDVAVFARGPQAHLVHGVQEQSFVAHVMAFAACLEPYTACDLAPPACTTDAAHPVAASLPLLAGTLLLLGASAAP
T5 sequence (P10635 whole entry): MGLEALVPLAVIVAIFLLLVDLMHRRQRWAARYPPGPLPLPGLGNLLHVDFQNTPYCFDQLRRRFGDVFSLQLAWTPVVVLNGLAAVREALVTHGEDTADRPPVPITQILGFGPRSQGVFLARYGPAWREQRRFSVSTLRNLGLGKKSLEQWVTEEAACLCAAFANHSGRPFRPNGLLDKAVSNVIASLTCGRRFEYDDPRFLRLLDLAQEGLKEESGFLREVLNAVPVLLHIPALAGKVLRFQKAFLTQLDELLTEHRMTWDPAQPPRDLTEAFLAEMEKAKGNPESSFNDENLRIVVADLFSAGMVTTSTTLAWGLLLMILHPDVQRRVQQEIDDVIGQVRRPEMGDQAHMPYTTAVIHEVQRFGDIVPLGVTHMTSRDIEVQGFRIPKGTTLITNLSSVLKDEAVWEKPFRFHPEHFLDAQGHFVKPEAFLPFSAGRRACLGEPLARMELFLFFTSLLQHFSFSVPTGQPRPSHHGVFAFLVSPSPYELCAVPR
Sequence of Intestinal-type alkaline phosphatase (Mus musculus, UniProt P24822) (P24822 whole entry): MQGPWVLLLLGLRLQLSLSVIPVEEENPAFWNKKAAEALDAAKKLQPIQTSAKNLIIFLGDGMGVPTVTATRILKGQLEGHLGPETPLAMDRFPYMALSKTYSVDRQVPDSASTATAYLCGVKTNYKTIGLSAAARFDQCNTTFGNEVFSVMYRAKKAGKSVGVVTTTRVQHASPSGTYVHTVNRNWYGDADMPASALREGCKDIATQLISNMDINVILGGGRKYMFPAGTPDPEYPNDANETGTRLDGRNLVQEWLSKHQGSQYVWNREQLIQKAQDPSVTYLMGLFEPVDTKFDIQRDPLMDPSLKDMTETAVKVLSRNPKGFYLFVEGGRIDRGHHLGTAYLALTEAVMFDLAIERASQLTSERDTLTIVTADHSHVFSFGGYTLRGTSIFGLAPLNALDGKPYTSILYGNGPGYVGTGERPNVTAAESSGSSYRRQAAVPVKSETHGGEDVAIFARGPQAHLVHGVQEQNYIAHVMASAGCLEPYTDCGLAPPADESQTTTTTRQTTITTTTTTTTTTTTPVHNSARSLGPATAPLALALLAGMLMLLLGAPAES
Sequence of Lysine-specific demethylase 4C (Q9H3R0 whole entry): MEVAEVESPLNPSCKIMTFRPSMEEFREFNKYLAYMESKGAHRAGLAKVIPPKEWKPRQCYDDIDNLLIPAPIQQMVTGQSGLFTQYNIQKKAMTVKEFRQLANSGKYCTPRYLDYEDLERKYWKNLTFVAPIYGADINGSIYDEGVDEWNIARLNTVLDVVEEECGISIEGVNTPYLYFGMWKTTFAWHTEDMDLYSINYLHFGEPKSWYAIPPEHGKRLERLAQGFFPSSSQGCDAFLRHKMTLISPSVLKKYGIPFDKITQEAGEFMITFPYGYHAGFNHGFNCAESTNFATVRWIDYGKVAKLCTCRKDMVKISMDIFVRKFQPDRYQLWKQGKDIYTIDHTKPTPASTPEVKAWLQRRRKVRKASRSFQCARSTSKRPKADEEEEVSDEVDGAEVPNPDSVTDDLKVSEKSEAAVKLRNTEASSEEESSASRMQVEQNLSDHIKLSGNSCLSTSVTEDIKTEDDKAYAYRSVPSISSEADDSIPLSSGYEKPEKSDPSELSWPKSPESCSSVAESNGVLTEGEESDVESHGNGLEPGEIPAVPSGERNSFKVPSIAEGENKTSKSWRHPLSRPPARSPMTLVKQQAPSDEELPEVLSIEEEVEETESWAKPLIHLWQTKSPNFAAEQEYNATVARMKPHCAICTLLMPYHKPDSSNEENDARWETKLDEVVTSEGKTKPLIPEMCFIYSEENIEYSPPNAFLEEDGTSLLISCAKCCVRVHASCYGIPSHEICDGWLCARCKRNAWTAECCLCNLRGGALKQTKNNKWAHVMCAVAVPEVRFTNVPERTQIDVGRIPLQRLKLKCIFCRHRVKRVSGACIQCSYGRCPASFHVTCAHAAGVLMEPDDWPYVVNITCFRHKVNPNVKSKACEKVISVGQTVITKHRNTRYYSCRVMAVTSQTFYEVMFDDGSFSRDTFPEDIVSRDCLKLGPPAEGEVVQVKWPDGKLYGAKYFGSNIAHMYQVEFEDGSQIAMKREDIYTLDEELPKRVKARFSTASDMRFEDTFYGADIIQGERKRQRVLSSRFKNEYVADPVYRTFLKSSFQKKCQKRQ
Sequence of Lysine-specific demethylase 4A (O75164 whole entry): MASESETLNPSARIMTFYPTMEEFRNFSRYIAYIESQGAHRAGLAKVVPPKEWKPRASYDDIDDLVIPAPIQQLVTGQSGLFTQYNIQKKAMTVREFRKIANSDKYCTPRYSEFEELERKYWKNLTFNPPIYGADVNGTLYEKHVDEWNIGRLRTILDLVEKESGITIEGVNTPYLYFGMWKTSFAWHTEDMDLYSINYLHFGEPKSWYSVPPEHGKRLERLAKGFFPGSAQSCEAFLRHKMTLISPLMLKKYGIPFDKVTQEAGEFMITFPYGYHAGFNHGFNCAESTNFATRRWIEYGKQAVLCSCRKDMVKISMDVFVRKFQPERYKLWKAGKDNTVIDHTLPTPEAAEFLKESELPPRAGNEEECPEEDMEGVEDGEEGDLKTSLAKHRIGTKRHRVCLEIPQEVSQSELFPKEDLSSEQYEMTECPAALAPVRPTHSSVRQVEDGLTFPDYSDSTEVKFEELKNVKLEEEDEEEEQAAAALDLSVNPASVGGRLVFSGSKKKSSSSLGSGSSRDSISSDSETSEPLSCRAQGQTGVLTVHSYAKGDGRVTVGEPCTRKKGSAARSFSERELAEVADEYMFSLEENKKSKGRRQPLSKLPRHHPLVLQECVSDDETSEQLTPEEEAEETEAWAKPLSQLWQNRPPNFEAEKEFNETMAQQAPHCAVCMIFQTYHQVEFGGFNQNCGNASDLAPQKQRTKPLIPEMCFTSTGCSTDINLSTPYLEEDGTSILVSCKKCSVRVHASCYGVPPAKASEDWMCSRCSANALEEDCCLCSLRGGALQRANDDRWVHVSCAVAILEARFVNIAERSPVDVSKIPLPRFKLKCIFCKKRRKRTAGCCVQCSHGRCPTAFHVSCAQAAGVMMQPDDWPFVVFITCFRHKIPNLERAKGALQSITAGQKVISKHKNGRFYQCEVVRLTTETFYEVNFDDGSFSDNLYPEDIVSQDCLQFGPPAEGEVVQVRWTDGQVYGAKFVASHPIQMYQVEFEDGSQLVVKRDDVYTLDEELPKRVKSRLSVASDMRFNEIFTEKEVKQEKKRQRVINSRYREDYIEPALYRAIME

AC50 [1]: 14.7 µM (active)
AC50 [3]: 13.9 µM (active)
SMILES: O=C(Nc1nnc(-c2ccco2)o1)c1ccc(N2C(=O)CCC2=O)cc1
AC50 [2]: 126 µM (active)

SMILES: COc1ccc(-c2ccc3oc(-c4ccc(OC)cc4)c(C#CC4(O)CCCCC4)c3c2)cc1
AC50 [4]: 29.8 µM (active)
AC50 [5]: 5.32 µM (active)

IC50 [6]: 32.7 µM (active)
EC50 [7]: > 100 µM (inactive)
IC50 [8]: 58.5 µM (active)
IC50 [9]: 10.5 µM (inactive)
SMILES: O=C(O)c1ccccc1C(=O)Nc1cc(-c2ccccc2)n[nH]1

SMILES: CCC[C@@H](CN1CCC[C@H]1CN1C(N)=NC[C@@H]1Cc1ccccc1)N1C[C@@H]([C@H](C)CC)N(CCCC2CCCC2)C1=N
IC50 [10]: 8.52 µM (active)
IC50 [11]: 10.9 µM (active)
IC50 (Bcl-2-related protein A1): > 20 µM (inactive)
IC50 (Exodeoxyribonuclease V): 15.2 µM (inactive)
AC50 (INS1): 7.33 µM (active)
IC50 [12]: 17.5 µM (inactive)

SMILES: CC(C)(C)c1o[nH]c(=O)c1C[C@H](N)C(=O)O
AC50 (Cytochrome P450 2D6 [13]): inconclusive
AC50 (Cytochrome P450 2D6 [14]): 1.58 µM (inconclusive)

— ChEMBL document CHEMBL1201862, “PubChem BioAssay data set” (2004)
